This is an account of results in ChEMBL document CHEMBL4818987, “Recent advances of podophyllotoxin/epipodophyllotoxin hybrids in anticancer activity, mode of action, and structure-activity relationship: An update (2010-2020)” (Eur J Med Chem, 2020).

Common to all, as to format: functional, cell-based
In assay [1] the test system is HeLa. As to the kind of experiment: Antiproliferative activity against human HeLa cells incubated for 48 hrs by MTT assay. Background: Tetrazolium assays rely on reduction of a dye to a coloured formazan, in cell work by metabolically active cells.
The subject of assay [2] is A549. As to the kind of experiment: Antiproliferative activity against human A549 cells incubated for 48 hrs by MTT assay. The following applies: A549, 48 h.
A further assay relates to HepG2. The assay is described as follows: Antiproliferative activity against human HepG2 cells incubated for 48 hrs by MTT assay. The following applies: HepG2, 48 h.
A further assay concerns MCF7. The assay is described as follows: Antiproliferative activity against human MCF7 cells incubated for 48 hrs by MTT assay. The following applies: MCF7, 48 h.
Assay [3] has as its system HeLa. The assay is described as follows: Antiproliferative activity against human HeLa cells incubated for 24 hrs by MTT assay.
Assay [4] relates to A549. The assay is described as follows: Antiproliferative activity against human A549 cells incubated for 24 hrs by MTT assay. The following applies: A549, 24 h.
Another assay concerns Calu-1. As to the kind of experiment: Antiproliferative activity against human Calu-1 cells incubated for 24 hrs by MTT assay. The following applies: Calu-1, 24 h.
Another assay deals with SMMC-7721. The assay is described as follows: Antiproliferative activity against human SMMC-7721 cells incubated for 48 hrs by MTT assay. The following applies: SMMC-7721, 48 h.
For the next assay, the system named is SW480. The assay is described as follows: Antiproliferative activity against human SW480 cells incubated for 48 hrs by MTT assay. The following applies: SW480, 48 h.
Another assay concerns HL-60. The assay is described as follows: Antiproliferative activity against human HL-60 cells incubated for 48 hrs by MTT assay. The following applies: HL-60, 48 h.

Turning to `COc1cc([C@@H]2c3cc4c(cc3C[C@H]3COC(=O)[C@@H]32)OCO4)cc(OC)c1OC(=O)NCC(=O)N1CCN(c2ccc([N+](=O)[O-])cc2)CC1`, the IC50 came to 183 nM in the assay on HeLa [1], 183 nM in the assay with A549 [2] and 210 nM in the assay with HepG2.

On to `CCC[C@H]1O[C@H](O[C@@H]2c3cc4c(cc3[C@@H](c3cc(OC)c(O)c(OC)c3)[C@H]3C(=O)OC[C@@H]32)OCO4)CC[C@H]1O`, for which the IC50 in the assay with HeLa [1], with MCF7, in the assay with A549 [2] and in the assay on HepG2 was 41.6 nM in each case.

For `COc1ccc(C2SCCC(CCCCC(=O)O[C@H]3c4cc5c(cc4[C@@H](c4cc(OC)c(OC)c(OC)c4)[C@H]4C(=O)OC[C@@H]43)OCO5)S2)cc1OC` (stereo not given in full), the IC50 in the assay on HeLa [3], in the assay with A549 [4] and with Calu-1 was 2680 nM throughout.

Turning to `CCC[C@@H]1O[C@H](O[C@H]2c3cc4c(cc3[C@@H](c3cc(OC)c(OC)c(OC)c3)[C@H]3C(=O)OC[C@@H]32)OCO4)CC[C@H]1O`, the IC50 in the assay with HeLa [1], in the assay with MCF7, with A549 [2] and with HepG2 was 41.6 nM throughout.

Turning to `COc1cc([C@@H]2c3cc4c(cc3[C@@H](n3cc(COC(=O)CCCC[C@@H]5SC[C@@H]6NC(=O)N[C@@H]65)nn3)[C@H]3COC(=O)[C@H]23)OCO4)cc(OC)c1O`, the IC50 in the assay with SMMC-7721, in the assay with MCF7, in the assay on SW480, in the assay on A549 [2] and with HL-60 was above 130 nM throughout.

For `COc1cc([C@@H]2c3cc4c(cc3[C@H](OC(=O)CCCCC3CCSC(c5ccc(Cl)cc5)S3)[C@H]3COC(=O)[C@H]23)OCO4)cc(OC)c1OC` (stereo not given in full), the IC50 in the assay on HeLa [3], with A549 [4] and in the assay on Calu-1 was 2680 nM in each case.

Regarding `COc1cc([C@@H]2c3cc4c(cc3[C@@H](n3cc(COC(=O)CCCCCNC(=O)CCCC[C@@H]5SC[C@@H]6NC(=O)N[C@@H]65)nn3)[C@H]3COC(=O)[C@H]23)OCO4)cc(OC)c1O`, the IC50 in the assay on SMMC-7721, in the assay on MCF7, in the assay with SW480, in the assay with A549 [2] and with HL-60 was above 130 nM each time.

As to `CC[C@H]1O[C@@H](O[C@@H]2c3cc4c(cc3[C@@H](c3cc(OC)c(O)c(OC)c3)[C@H]3C(=O)OC[C@@H]32)OCO4)CC[C@H]1O`, the IC50 in the assay on HeLa [1], with MCF7, in the assay on A549 [2] and in the assay with HepG2 was 41.6 nM throughout.

In the case of `COc1cc([C@@H]2c3cc4c(cc3[C@@H](O[C@H]3CC[C@@H](O)[C@@H](C(C)C)O3)[C@H]3COC(=O)[C@H]23)OCO4)cc(OC)c1O`, the IC50 in the assay on HeLa [1], in the assay on MCF7, in the assay on A549 [2] and in the assay on HepG2 was 41.6 nM throughout.

Regarding `COc1cc([C@@H]2c3cc4c(cc3[C@H](OC(=O)CCCCC3CCSC(c5ccccc5)S3)[C@H]3COC(=O)[C@H]23)OCO4)cc(OC)c1OC` (stereo not given in full), the IC50 in the assay with HeLa [3], in the assay with A549 [4] and in the assay with Calu-1 was 2680 nM each time.

On to `CCCC(=O)O[C@@H]1[C@@H](OC(=O)CCC)[C@@H](O[C@@H]2c3cc4c(cc3[C@@H](c3cc(OC)c(O)c(OC)c3)[C@H]3C(=O)OC[C@@H]32)OCO4)OC[C@H]1OC(=O)CCC`, for which the IC50 in the assay with SMMC-7721, with MCF7, in the assay with SW480, in the assay with A549 [2] and with HL-60 was above 2900 nM in each case.

In the case of `COc1cc([C@@H]2c3cc4c(cc3[C@@H](O[C@@H]3CC[C@@H](O)[C@@H](C)O3)[C@H]3COC(=O)[C@H]23)OCO4)cc(OC)c1O`, the IC50 in the assay with HeLa [1], with MCF7, in the assay on A549 [2] and in the assay with HepG2 was 41.6 nM in each case.

As for `COc1cc([C@@H]2c3cc4c(cc3[C@H](O[C@H]3CC[C@@H](O)[C@H](C(C)C)O3)[C@H]3COC(=O)[C@H]23)OCO4)cc(OC)c1OC`, the IC50 in the assay with HeLa [1], in the assay on MCF7, in the assay with A549 [2] and in the assay on HepG2 was 41.6 nM each time.

As for `COc1cc([C@@H]2c3cc4c(cc3[C@H](O[C@H]3CC[C@@H](O)[C@H](C)O3)[C@H]3COC(=O)[C@H]23)OCO4)cc(OC)c1OC`, the IC50 in the assay on HeLa [1], in the assay with MCF7, in the assay on A549 [2] and in the assay with HepG2 was 41.6 nM each time.

For the compound `COc1cc([C@@H]2c3cc4c(cc3[C@H](OC(=O)CCCCC3CCSC(c5ccccc5C)S3)[C@H]3COC(=O)[C@H]23)OCO4)cc(OC)c1OC` (stereo not given in full), the IC50 with HeLa [3], in the assay with A549 [4] and in the assay with Calu-1 was 2680 nM throughout.

For the compound `COc1cc([C@@H]2c3cc4c(cc3[C@@H](O[C@@H]3CC[C@@H](O)[C@H](C)O3)[C@H]3COC(=O)[C@H]23)OCO4)cc(OC)c1O`, the IC50 in the assay with HeLa [1], with MCF7, in the assay on A549 [2] and in the assay on HepG2 was 41.6 nM throughout.

Take `CC[C@H]1O[C@H](O[C@@H]2c3cc4c(cc3[C@@H](c3cc(OC)c(O)c(OC)c3)[C@H]3C(=O)OC[C@@H]32)OCO4)CC[C@H]1O`: the IC50 in the assay with HeLa [1], in the assay on MCF7, in the assay on A549 [2] and with HepG2 was 41.6 nM throughout.

With `COc1cc([C@@H]2c3cc4c(cc3[C@@H](O[C@H]3CC[C@@H](O)[C@@H](C)O3)[C@H]3COC(=O)[C@H]23)OCO4)cc(OC)c1O`, the IC50 in the assay with HeLa [1], with MCF7, in the assay with A549 [2] and with HepG2 was 41.6 nM each time.

For the compound `COc1ccccc1C1SCCC(CCCCC(=O)O[C@H]2c3cc4c(cc3[C@@H](c3cc(OC)c(OC)c(OC)c3)[C@H]3C(=O)OC[C@@H]32)OCO4)S1` (stereo not given in full), the IC50 in the assay with HeLa [3], in the assay with A549 [4] and in the assay with Calu-1 was 2680 nM in each case.

For the compound `COc1cc([C@@H]2c3cc4c(cc3[C@H](OC(=O)CCCCC3CCSC(c5ccccc5Cl)S3)[C@H]3COC(=O)[C@H]23)OCO4)cc(OC)c1OC` (stereo not given in full), the IC50 with HeLa [3], in the assay with A549 [4] and in the assay with Calu-1 was 2680 nM throughout.

Take `COc1cc([C@@H]2c3cc4c(cc3[C@@H](n3cc(COC(=O)CCCCCNC(=O)CCCC[C@@H]5SC[C@@H]6NC(=O)N[C@@H]65)nn3)[C@H]3COC(=O)[C@H]23)OCO4)cc(OC)c1OC`: the IC50 with SMMC-7721, in the assay on MCF7, in the assay with SW480, in the assay on A549 [2] and in the assay on HL-60 was above 130 nM throughout.

On to `CCC[C@@H]1O[C@@H](O[C@H]2c3cc4c(cc3[C@@H](c3cc(OC)c(OC)c(OC)c3)[C@H]3C(=O)OC[C@@H]32)OCO4)CC[C@H]1O`, for which the IC50 in the assay with HeLa [1], with MCF7, in the assay with A549 [2] and in the assay with HepG2 was 41.6 nM each time.

`COc1cc([C@@H]2c3cc4c(cc3[C@@H](O[C@H]3O[C@H](COC(C)=O)[C@@H](OC(C)=O)[C@H](OC(C)=O)[C@H]3OC(C)=O)[C@H]3COC(=O)[C@H]23)OCO4)cc(OC)c1O`: the IC50 in the assay on SMMC-7721, in the assay with MCF7, in the assay with SW480, with A549 [2] and with HL-60 was above 140 nM in each case.

`COc1cc([C@@H]2c3cc4c(cc3[C@@H](O[C@@H]3CC[C@@H](O)[C@H](C(C)C)O3)[C@H]3COC(=O)[C@H]23)OCO4)cc(OC)c1O`: the IC50 in the assay on HeLa [1], in the assay with MCF7, with A549 [2] and in the assay with HepG2 was 41.6 nM in each case.

On to `COc1cc([C@@H]2c3cc4c(cc3[C@H](OC(=O)CCCCC3CCSC(c5ccc(C(C)C)cc5)S3)[C@H]3COC(=O)[C@H]23)OCO4)cc(OC)c1OC` (stereo not given in full), for which the IC50 with HeLa [3], with A549 [4] and in the assay on Calu-1 was 2680 nM throughout.

`CCC[C@H]1O[C@@H](O[C@@H]2c3cc4c(cc3[C@@H](c3cc(OC)c(O)c(OC)c3)[C@H]3C(=O)OC[C@@H]32)OCO4)CC[C@H]1O`: the IC50 in the assay on HeLa [1], with MCF7, in the assay with A549 [2] and in the assay on HepG2 was 41.6 nM each time.

Regarding `COc1cc([C@@H]2c3cc4c(cc3[C@@H](O[C@@H]3CC[C@@H](O)[C@@H](C(C)C)O3)[C@H]3COC(=O)[C@H]23)OCO4)cc(OC)c1O`, the IC50 with HeLa [1], with MCF7, in the assay with A549 [2] and with HepG2 was 41.6 nM in each case.

Consider `COc1cc([C@@H]2c3cc4c(cc3[C@@H](n3cc(COC(=O)CCCC[C@@H]5SC[C@@H]6NC(=O)N[C@@H]65)nn3)[C@H]3COC(=O)[C@H]23)OCO4)cc(OC)c1OC`, for which the IC50 with SMMC-7721, with MCF7, with SW480, in the assay on A549 [2] and in the assay on HL-60 was above 130 nM each time.

For the compound `COc1cc([C@@H]2c3cc4c(cc3[C@@H](NC(=O)CCCCCNC(=O)CCCC[C@@H]3SC[C@@H]5NC(=O)N[C@@H]53)[C@H]3COC(=O)[C@H]23)OCO4)cc(OC)c1OC`, the IC50 in the assay with SMMC-7721, in the assay on MCF7, in the assay with SW480, in the assay on A549 [2] and in the assay on HL-60 was above 130 nM each time.

Usually IC50 stands for the midpoint of a concentration-inhibition curve. Low readings indicate greater potency in that assay, high ones weaker potency in that assay.
